ChEMBL document CHEMBL1147813, “Design, molecular modeling, synthesis, and anti-HIV-1 activity of new indolyl aryl sulfones. Novel derivatives of the indole-2-carboxamide” (J Med Chem, 2006)

Tests used:
[1] = system: Human immunodeficiency virus 1; experiment: Antiviral activity against HIV1; format: functional, organism-based
[2] = system: Human immunodeficiency virus 1; experiment: Antiviral activity against HIV1 3B in MT4 cell line; format: functional, organism-based; settings: Human immunodeficiency virus 1, 3B
[3] = system: Human immunodeficiency virus 1; experiment: Antiviral activity against HIV1 K103N-Y181C mutant in MT4 cell line; format: functional, organism-based; settings: Human immunodeficiency virus 1, MT4
[4] = system: Human immunodeficiency virus 1; experiment: Antiviral activity against HIV1 Y181C mutant in MT4 cell line; format: functional, organism-based; settings: Human immunodeficiency virus 1, MT4
MT4 [5] = experiment: Selectivity index, TC50 for MT4 cell line/EC50 for HIV1; format: functional
C8166 [6] = experiment: Selectivity index, TC50 for C8166 cell line/EC50 for HIV1; format: functional
MT4 [7] = experiment: Cytotoxicity against MT4 cell line by MTT assay; format: functional; settings: Homo sapiens, read-out: TC50 (the source's name)
[8] = system: Human immunodeficiency virus 1; experiment: Antiviral activity against HIV1 in MT4 cell line; format: functional, organism-based; settings: Human immunodeficiency virus 1, MT4
C8166 [9] = experiment: Antiproliferative activity against C8166 cell line by MTT assay; format: functional; settings: Homo sapiens, read-out: TC50 (the source's name)
[10] = system: Human immunodeficiency virus 1; experiment: Antiviral activity against HIV1 in C8166 cell line; format: functional, organism-based; settings: Human immunodeficiency virus 1, C8166
Lymphocyte [11] = experiment: Selectivity index, TC50 for human lymphocytes/EC50 for HIV-AB1; format: functional
[12] = system: Human immunodeficiency virus; experiment: Activity against HIV-AB1 assessed by inhibition of p24 production in human lymphocytes; format: functional, organism-based; settings: Human immunodeficiency virus 1
Macrophage [13] = experiment: Cytotoxicity against human macrophages; format: functional; settings: read-out: TC50 (the source's name)
[14] = system: Human immunodeficiency virus; experiment: Activity against HIV-112 assessed by inhibition of p24 production in human lymphocytes; format: functional, organism-based; settings: Human immunodeficiency virus 1
Macrophage [15] = experiment: Selectivity index, TC50 for human macrophages/EC50 for HIV1 […]; format: functional
[16] = system: Human immunodeficiency virus 1; experiment: Activity against HIV1 3B assessed by inhibition of p24 production in human lymphocytes; format: functional, organism-based; settings: Human immunodeficiency virus 1, 3B
Lymphocyte [17] = experiment: Cytotoxicity against human lymphocytes; format: functional; settings: read-out: TC50 (the source's name)
Lymphocyte [18] = experiment: Selectivity index, TC50 for human lymphocytes/EC50 for HIV1 3B; format: functional
Lymphocyte [19] = experiment: Selectivity index, TC50 for human lymphocytes/EC50 for HIV-112; format: functional

| SMILES | EC50 [1] | further results |
| --- | --- | --- |
| NC(=O)c1[nH]c2ccccc2c1Sc1cc(Cl)ccc1N | 9000 nM | – |
| CCOC(=O)c1[nH]c2ccc(Cl)cc2c1S(=O)(=O)c1ccccc1N | > 200000 nM | – |
| Cc1cc(C)cc(S(=O)(=O)c2c(C(=O)NCC(=O)NN)[nH]c3ccc(Cl)cc23)c1 | – | EC50 [2]: 20 nM; EC50 [3]: 2600 nM; EC50 [4]: 60 nM; Selectivity index (MT4 [5]): >5000; Selectivity index (C8166 [6]): >5000; CC50 (MT4 [7]): > 100000 nM; EC50 ([8]; read-out: EC50): 20 nM; CC50 (C8166 [9]): > 100000 nM; EC50 [10]: 20 nM |
| Cc1cccc(S(=O)(=O)c2c(C(=O)NNCCO)[nH]c3ccc(Cl)cc23)c1 | 7 nM | – |
| Cc1ccc(S(=O)(=O)c2c(C(=O)NNCCO)[nH]c3ccc(Cl)cc23)cc1 | 40 nM | – |
| CCOC(=O)c1cc2ccccc2n1S(=O)(=O)c1ccccc1[N+](=O)[O-] | 1800 nM | – |
| NNC(=O)c1[nH]c2ccc(Cl)cc2c1S(=O)(=O)c1ccc(F)cc1 | 320 nM | – |
| Cc1ccc(S(=O)(=O)c2c(C(=O)NNCCO)[nH]c3ccc(Cl)cc23)c(C)c1 | 80 nM | – |
| NNC(=O)c1[nH]c2ccc(Cl)cc2c1S(=O)(=O)c1ccccc1 | 10 nM | – |
| CCOC(=O)c1cn(S(=O)(=O)c2ccccc2)c2ccccc12 | > 32000 nM | – |
| NC(=O)c1cc2cc(Cl)ccc2n1S(=O)(=O)c1ccccc1 | 66600 nM | – |
| Cc1ccccc1S(=O)(=O)c1c(C(N)=O)[nH]c2ccc(Cl)cc12 | 1 nM | – |
| NC(=O)c1[nH]c2ccc(Cl)cc2c1S(=O)(=O)c1c(Cl)cccc1Cl | 100 nM | – |
| CCOC(=O)c1cc2ccccc2n1S(=O)(=O)c1ccc(Cl)cc1 | > 100000 nM | – |
| Cc1ccc(Sc2c(C(=O)NNCCO)[nH]c3ccc(Cl)cc23)cc1 | 600 nM | – |
| NC(=O)c1[nH]c2ccccc2c1S(=O)(=O)c1cc(Cl)ccc1N | 300 nM | – |
| NNC(=O)c1[nH]c2ccc(Cl)cc2c1S(=O)(=O)c1cc(Cl)ccc1N | 300 nM | – |
| Cc1cccc(Sc2c(C(=O)NCCO)[nH]c3ccc(Cl)cc23)c1C | 100 nM | – |
| CC(C)OC(=O)c1cn(S(=O)(=O)c2ccccc2)c2ccccc12 | > 54000 nM | – |
| CCOC(=O)c1[nH]c2ccccc2c1Sc1ccccc1 | 1400 nM | – |
| NNC(=O)c1[nH]c2ccc(Cl)cc2c1Sc1ccc(F)cc1 | 5000 nM | – |
| O=[N+]([O-])c1cc(Cl)ccc1-n1ccc2ccccc21 | 4800 nM | – |

| SMILES | EC50 [1] | further results |
| --- | --- | --- |
| Cc1cccc(S(=O)(=O)c2c(C(=O)NCCO)[nH]c3ccc(Cl)cc23)c1 | 3 nM | – |
| CCOC(=O)c1cc2cc(Cl)ccc2n1S(=O)(=O)c1cc(Cl)ccc1[N+](=O)[O-] | > 31000 nM | – |
| Nc1ccc(Cl)cc1-n1ccc2ccccc21 | 6000 nM | – |
| Cc1ccc(Sc2c(C(=O)NNCCO)[nH]c3ccc(Cl)cc23)c(C)c1 | 1200 nM | – |
| O=[N+]([O-])c1ccc(Cl)c(-n2ccc3ccccc32)c1 | 5220 nM | – |
| NC(=O)c1cn(S(=O)(=O)c2ccccc2)c2ccccc12 | > 32000 nM | – |
| NC(=O)c1[nH]c2ccc(Cl)cc2c1S(=O)(=O)c1cc(Cl)ccc1N | 40 nM | – |
| Cc1ccc(S(=O)(=O)c2c(C(=O)NCCO)[nH]c3ccc(Cl)cc23)cc1 | 43 nM | – |
| NNC(=O)c1[nH]c2ccc(Cl)cc2c1S(=O)(=O)c1ccc(Cl)cc1 | 190 nM | – |
| CC(C)OC(=O)c1cn(S(=O)(=O)c2ccccc2)c2ccc(Cl)cc12 | > 200000 nM | – |
| NNC(=O)c1[nH]c2ccc(Cl)cc2c1Sc1cc(Cl)ccc1N | > 13000 nM | – |
| Cc1ccccc1S(=O)(=O)c1c(C(=O)NNCCO)[nH]c2ccc(Cl)cc12 | 50 nM | – |
| O=[N+]([O-])c1ccccc1-n1ccc2ccccc21 | 5300 nM | – |
| O=C(NNCCO)c1[nH]c2ccc(Cl)cc2c1S(=O)(=O)c1ccccc1 | 10 nM | – |
| Cc1cc(C)cc(S(=O)(=O)c2c(C(=O)NN3CCOC3=O)[nH]c3ccc(Cl)cc23)c1 | – | EC50 [2]: 1 nM; Selectivity index (Lymphocyte [11]): >5000; EC50 [3]: 900 nM; EC50 [12]: 20 nM; CC50 (Macrophage [13]): > 100000 nM; EC50 [4]: 10 nM; Selectivity index (MT4 [5]): 111111; EC50 [14]: 30 nM; Selectivity index (Macrophage [15]): >50000; Selectivity index (C8166 [6]): >33333; EC50 [16]: 10 nM; CC50 (MT4 [7]): 100000 nM; EC50 ([8]; read-out: EC50): 0.9 nM; EC50 ([8]; read-out: Log EC50 (converted)): 0.899 nM; CC50 (Lymphocyte [17]): > 100000 nM; CC50 (C8166 [9]): > 100000 nM; Selectivity index (Lymphocyte [18]): >10000; Selectivity index (Lymphocyte [19]): >3333; EC50 [10]: 3 nM |
| O=S(=O)(c1ccccc1)n1ccc2cc(Cl)ccc21 | > 75000 nM | – |
| Nc1ccc(Cl)c(-n2ccc3ccccc32)c1 | 3820 nM | – |
| CCOC(=O)c1[nH]c2ccccc2c1Sc1cc(Cl)ccc1N | ≥ 200000 nM | – |
| O=C(NCCO)c1[nH]c2ccc(Cl)cc2c1S(=O)(=O)c1ccccc1 | 1 nM | – |
| O=S(=O)(c1ccccc1)n1ccc2ccccc21 | > 150000 nM | – |
| O=C(NCCO)c1[nH]c2ccc(Cl)cc2c1Sc1ccccc1 | 40 nM | – |
